Assay results published in PubChem BioAssay (NCI).
Where “and” joins values, the source holds several entries; their conditions need not be identical. Equal values may be shown once.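 Briefly, cells in 96-well plates were exposed to five compound concentrations for 48 h, and endpoints were estimated by linear interpolation. GI50 marks 50% less growth. TGI marks complete inhibition of growth.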

Experiments:
Assay in all cases: inhibition of tumour cell growth, NCI panel, 48 h
[1] = system: M14 melanoma
[2] = system: SK-MEL-28 melanoma
[3] = system: RXF 393 renal
[4] = system: NCI/ADR-RES ovarian
[5] = system: LOX IMVI melanoma
[6] = system: NCI-H226 lung
[7] = system: SF-268 CNS
[8] = system: HCC-2998 colon
[9] = system: ACHN renal
[10] = system: NCI-H460 lung
[11] = system: HL-60(TB) leukemia
[12] = system: A549 NSCLC
[13] = system: SNB-19 CNS
[14] = system: SNB-75 CNS
[15] = system: UO-31 renal
[16] = system: HOP-62 NSCLC
[17] = system: NCI-H522 lung
[18] = system: BT-549 breast
[19] = system: T-47D breast
[20] = system: KM12 colon
[21] = system: IGROV1 ovarian
[22] = system: HOP-92 NSCLC
[23] = system: COLO 205 colon
[24] = system: MCF7 breast
[25] = system: HT29 colon
[26] = system: SW-620 colon
[27] = system: SF-539 CNS
[28] = system: UACC-62 melanoma
[29] = system: 786-0 renal
[30] = system: HCT-15 colon
[31] = system: TK-10 renal
[32] = system: UACC-257 melanoma
[33] = system: K-562 leukemia
[34] = system: MOLT-4 leukemia
[35] = system: SK-OV-3 ovarian
[36] = system: EKVX NSCLC
[37] = system: RPMI-8226 leukemia
[38] = system: NCI-H23 lung
[39] = system: CCRF-CEM leukemia
[40] = system: U251 CNS
[41] = system: PC-3 prostate
[42] = system: DU-145 prostate
[43] = system: SK-MEL-5 melanoma
[44] = system: OVCAR-8 ovarian
[45] = system: HS 578T breast
[46] = system: A498 renal
[47] = system: OVCAR-5 ovarian
[48] = system: HCT-116 colon
[49] = system: CAKI-1 renal
[50] = system: SN12C renal
[51] = system: MDA-MB-231 breast
[52] = system: OVCAR-3 ovarian
[53] = system: SF-295 CNS
[54] = system: OVCAR-4 ovarian
[55] = system: SR leukemia
[56] = system: MDA-MB-435
[57] = system: MALME-3M melanoma
[58] = system: SK-MEL-2 melanoma

For `OCCN1CCN(CCCN2c3ccccc3Sc3ccc(C(F)(F)F)cc32)CC1`, the GI50 [1] was 0.899 µM and 2.34 µM, the TGI [1] was 1.73 µM and 6.13 µM and the GI50 [2] was 0.91 µM and 2.48 µM and 2.2 µM. For the same compound, the TGI [2] was 1.66 µM and 7.16 µM and 5.98 µM, the GI50 [3] was 1.35 µM and 5.08 µM and 5.7 µM and the TGI [3] was 6.39 µM and 18.9 µM and 19.6 µM. For the same compound, the GI50 [4] was 3.28 µM and 10.8 µM and 9.73 µM, the TGI [4] was 10.4 µM and 23.4 µM and 23.5 µM and the GI50 [5] was 0.898 µM and 5.18 µM and 3.4 µM. For the same compound, the TGI [5] was 2 µM and 18.2 µM and 12.7 µM, the GI50 [6] was 5.3 µM and 12.7 µM and 12.3 µM and the TGI [6] was 11.8 µM and 27.6 µM and 25.7 µM. The GI50 [7] was 5.2 µM and 11.5 µM, the TGI [7] was 11.5 µM and 24.5 µM and the GI50 [8] was 0.824 µM and 2.75 µM and 1.97 µM. The TGI [8] was 1.6 µM and 7.99 µM and 4.21 µM, the GI50 [9] was 3.61 µM and 11.7 µM and 10.2 µM and the TGI [9] was 10.2 µM and 25.6 µM and 22.6 µM. The GI50 [10] was 1.82 µM and 9.47 µM and 4.83 µM, the TGI [10] was 6.69 µM and 28.4 µM and 23.3 µM and the GI50 [11] was 2.52 µM and 11.5 µM and 2.06 µM. For the same compound, the TGI [11] was 9.06 µM and 29.3 µM and 5.56 µM, the GI50 [12] was 2.79 µM and 10.8 µM and 9.54 µM and the TGI [12] was 9.84 µM and 24 µM and 22.9 µM. For the same compound, the GI50 [13] was 2.08 µM and 14 µM and 12.3 µM, the TGI [13] was 8.34 µM and 30.8 µM and 27.3 µM and the GI50 [14] was 2.04 µM and 10 µM and 6.62 µM. For the same compound, the TGI [14] was 9.16 µM and 22.4 µM and 21.8 µM, the GI50 [15] was 1.96 µM and 6.09 µM and 4.53 µM and the TGI [15] was 8.84 µM and 21.2 µM and 20 µM. The GI50 [16] was 3.11 µM and 13.1 µM and 11.6 µM, the TGI [16] was 9.82 µM and 27.4 µM and 24.7 µM and the TGI [17] was 3.49 µM and 30.1 µM and 26.8 µM. The GI50 [18] was 5.65 µM and 2.92 µM and 3.29 µM, the TGI [18] was 12.1 µM and 17.7 µM and 9.5 µM and the GI50 [19] was 1.36 µM and 8.88 µM and 7.46 µM. The TGI [19] was 6.12 µM and 25.8 µM and 22.9 µM, the GI50 [20] was 2.35 µM and 8.95 µM and the TGI [20] was 8.01 µM and 21.6 µM. The GI50 [21] was 2.57 µM and 11.3 µM and 10.2 µM, the TGI [21] was 9.32 µM and 28.5 µM and 30.1 µM and the GI50 [22] was 0.708 µM. For the same compound, the TGI [22] was 3.81 µM, the GI50 [23] was 0.795 µM and 2.17 µM and 1.93 µM and the TGI [23] was 1.53 µM and 4.46 µM and 3.59 µM. For the same compound, the GI50 [24] was 1.2 µM and 6.8 µM and 7.74 µM, the TGI [24] was 2.92 µM and 22.6 µM and 25.1 µM and the GI50 [25] was 0.897 µM and 4.12 µM and 3.23 µM. The TGI [25] was 1.78 µM and 13.9 µM and 11 µM, the GI50 [26] was 1.93 µM and 11.7 µM and 4.22 µM and the TGI [26] was 8.01 µM and 25.4 µM and 16.2 µM. The GI50 [27] was 4.88 µM and 10.8 µM and 9.77 µM, the TGI [27] was 11.3 µM and 26.9 µM and 23.6 µM and the GI50 [28] was 0.824 µM and 2.48 µM and 2.08 µM. For the same compound, the TGI [28] was 1.62 µM and 6.83 µM and 4.44 µM, the GI50 [29] was 3.01 µM and 9.35 µM and 3.81 µM and the TGI [29] was 9.95 µM and 25.9 µM and 20.4 µM. For the same compound, the GI50 [30] was 1.97 µM and 4.22 µM and 3.7 µM, the TGI [30] was 6.88 µM and 18.3 µM and 15 µM and the GI50 [31] was 1.48 µM and 8.22 µM and 6.59 µM. For the same compound, the TGI [31] was 4.28 µM and 21.3 µM and 20.1 µM, the GI50 [32] was 0.863 µM and 2.01 µM and 1.96 µM and the TGI [32] was 1.74 µM and 4.97 µM and 4.19 µM. The GI50 [33] was 1.27 µM and 3.18 µM and 2.05 µM, the TGI [33] was 2.83 µM and 10.7 µM and 4.73 µM and the GI50 [34] was 2.35 µM and 9.23 µM and 2.83 µM. The TGI [34] was 8.44 µM and 27 µM and 8.49 µM, the GI50 [35] was 5.55 µM and 14.5 µM and 13.3 µM and the TGI [35] was 11.7 µM and 29.1 µM and 27.3 µM. The GI50 [36] was 5.18 µM and 11.6 µM and 10.4 µM, the TGI [36] was 12.7 µM and 29.2 µM and 30.4 µM and the GI50 [37] was 1.54 µM. The TGI [37] was 4.69 µM, the GI50 [38] was 5.2 µM and 11.6 µM and 10.5 µM and the TGI [38] was 12 µM and 24.5 µM and 24.1 µM. For the same compound, the GI50 [39] was 2.59 µM, the TGI [39] was 9.67 µM and the GI50 [40] was 1.45 µM and 5.19 µM and 3.66 µM. For the same compound, the TGI [40] was 5.44 µM and 18.4 µM and 14.5 µM, the GI50 [41] was 1.97 µM and 8.77 µM and 10.3 µM and the TGI [41] was 8.14 µM and 21.6 µM and 23 µM. For the same compound, the GI50 [42] was 6.29 µM and 12.9 µM, the TGI [42] was 12.7 µM and 25.7 µM and the GI50 [43] was 0.764 µM and 3.02 µM and 1.98 µM. The TGI [43] was 1.43 µM and 11 µM and 4.8 µM, the GI50 [44] was 4.46 µM and 13.6 µM and 14 µM and the TGI [44] was 11.4 µM and 28.5 µM and 28.8 µM. For the same compound, the GI50 [45] was 1.86 µM and 13.5 µM and 8.23 µM, the TGI [45] was 13.1 µM and 60.6 µM and 41.6 µM and the GI50 [46] was 2.28 µM and 9.65 µM and 10.4 µM. The TGI [46] was 10.3 µM and 23.4 µM and 28.1 µM, the GI50 [47] was 5.68 µM and 11.2 µM and 11.5 µM and the TGI [47] was 12.2 µM and 25.3 µM and 25.1 µM. The GI50 [48] was 1.55 µM, the TGI [48] was 5.52 µM and the GI50 [49] was 2.61 µM and 11.3 µM and 6.93 µM. The TGI [49] was 9.5 µM and 25.7 µM and 21.6 µM, the GI50 [50] was 4.49 µM and 11.4 µM and 7.83 µM and the TGI [50] was 11.4 µM and 26.7 µM and 21.8 µM. For the same compound, the GI50 [51] was 1.2 µM and 8.87 µM and 5.68 µM, the TGI [51] was 5.07 µM and 22.8 µM and 18.1 µM and the GI50 [52] was 4.34 µM and 12.4 µM. For the same compound, the TGI [52] was 10.6 µM and 25.5 µM, the GI50 [53] was 1.02 µM and 4.73 µM and 2.41 µM and the TGI [53] was 2.7 µM and 19.2 µM and 6.19 µM. The GI50 [54] was 5.29 µM and 10.8 µM and 8.5 µM, the TGI [54] was 11.2 µM and 23.1 µM and 20.9 µM and the GI50 [55] was 2.05 µM and 3.56 µM and 1.9 µM. For the same compound, the TGI [55] was 6.46 µM and 13.2 µM and 5.51 µM, the GI50 [56] was 1.14 µM and 3.54 µM and 2.44 µM and the TGI [56] was 3 µM and 14 µM and 7.42 µM.

Work on `N#CC(c1ccc(O)cc1)N1CCN(C(C#N)c2ccc(O)cc2)CC1` (stereo not drawn) yielded a TGI [1] greater than 100 µM, a TGI [2] greater than 100 µM and a TGI [3] greater than 92.5 µM. The TGI [4] was greater than 100 µM, the TGI [5] was greater than 100 µM and the TGI [6] was greater than 77.6 µM. It also gave a TGI [7] of 64.4 µM, a TGI [8] greater than 100 µM and a TGI [9] greater than 100 µM. It also gave a TGI [11] greater than 100 µM, a TGI [12] greater than 100 µM and a TGI [13] of 75.7 µM. For the same compound, the TGI [14] was 48.1 µM, the TGI [15] was greater than 100 µM and the TGI [16] was 57.1 µM. For the same compound, the TGI [17] was greater than 100 µM, the TGI [18] was greater than 100 µM and the TGI [57] was greater than 100 µM. The TGI [19] was greater than 82.9 µM, the TGI [20] was greater than 100 µM and the TGI [21] was greater than 100 µM. It also gave a TGI [22] of 60.1 µM, a TGI [23] greater than 100 µM and a TGI [24] greater than 100 µM. For the same compound, the TGI [25] was greater than 100 µM, the TGI [26] was greater than 100 µM and the TGI [27] was greater than 100 µM. It also gave a TGI [28] greater than 100 µM, a TGI [29] greater than 100 µM and a TGI [30] greater than 100 µM. For the same compound, the TGI [31] was greater than 100 µM, the TGI [32] was greater than 100 µM and the TGI [33] was greater than 100 µM. It also gave a TGI [34] greater than 100 µM, a TGI [35] greater than 100 µM and a TGI [36] greater than 76.1 µM. The TGI [37] was greater than 100 µM, the TGI [38] was greater than 100 µM and the TGI [39] was greater than 100 µM. It also gave a TGI [40] of 51.9 µM, a TGI [41] greater than 100 µM and a TGI [42] greater than 91.5 µM. It also gave a TGI [43] greater than 100 µM, a TGI [58] greater than 100 µM and a TGI [44] greater than 53.1 µM. It also gave a TGI [45] greater than 100 µM, a TGI [46] greater than 100 µM and a TGI [47] greater than 100 µM. The TGI [48] was greater than 100 µM, the TGI [49] was greater than 100 µM and the TGI [50] was greater than 100 µM. The TGI [51] was 55.8 µM, the TGI [52] was greater than 100 µM and the TGI [53] was greater than 100 µM. The TGI [54] was greater than 100 µM, the TGI [55] was greater than 100 µM and the TGI [56] was greater than 100 µM.
